Experiments:
Type in all cases: in vivo
Details in all cases: scale 0 to 100
[1] = tested on: soybean (Glycine max); experiment: Test E postemergence
Summary of the method: (§1)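 Preemergence: seeds in silt loam treated with compound in non-phytotoxic solvent with surfactant. Postemergence: plants at 1- to 4-leaf stage (2–18 cm) in peat-based medium sprayed likewise. Greenhouse 14–21 days, then visual rating vs controls, 0 (no effect) to 100 (complete control).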

[2] = tested on: barnyardgrass (Echinochloa crus-galli); experiment: Test E postemergence
Summary of the method: as §1

[3] = tested on: dayflower (Virginia (VA) dayflower, Commelina virginica); experiment: Test E postemergence
Summary of the method: as §1

[4] = tested on: corn (Zea mays); experiment: Test E postemergence
Summary of the method: as §1

[5] = tested on: horseweed (Conyza canadensis); experiment: Test E postemergence
Summary of the method: as §1

[6] = tested on: ragweed (common ragweed, Ambrosia elatior); experiment: Test E postemergence
Summary of the method: as §1

[7] = tested on: wild radish (Raphanus raphanistrum); experiment: Test D postemergence
Excerpt: (§2) Seeds of plant species selected from bluegrass (annual bluegrass, Poa annua), blackgrass (Alopecurus myosuroides), canarygrass (Phalaris minor), chickweed (common chickweed, Stellaria media), cutleaf geranium (Geranium dissectum), galium (catchweed bedstraw, Galium aparine), downy bromegrass (Bromus tectorum), field poppy (Papaver rhoeas), field violet (Viola arvensis), green foxtail (Setaria viridis), deadnettle (henbit deadnettle, Lamium amplexicaule), Italian ryegrass (Lolium multiflorum), kochia (Kochia scoparia), lambsquarters (Chenopodium album), oilseed rape (Brassica napus), pigweed (Amaranthus retroflexus), chamomile (scentless chamomile, Matricaria inodora), Russian thistle (Salsola kali), speedwell (bird's-eye speedwell, Veronica persica), spring barley (Hordeum vulgare), spring wheat (Triticum aestivum), wild buckwheat (Polygonum convolvulus), wild mustard (Sinapis arvensis), wild oat (Avenafatua), wild radish (Raphanus raphanistrum), windgrass (Apera spica-venti), winter barley (Hordeum vulgare), and winter wheat (Triticum aestivum) were planted into a silt loam soil and treated preemergence with test chemicals formulated in a non-phytotoxic solvent mixture which included a surfactant.
(§3) At the same time, these species were planted in pots containing Redi-Earth® planting medium (Scotts Company, 14111 Scottslawn Road, Marysville, Ohio 43041) comprising spaghnum peat moss, vermiculite, wetting agent and starter nutrients and treated with postemergence applications of the test chemicals formulated in the same manner. Plants ranged in height from 2 to 18 cm (1- to 4-leaf stage). Treated plants and controls were maintained in a controlled growth environment for 14 to 21 days after which time all species were compared to controls and visually evaluated. Plant response ratings, summarized in Table D, are based on a scale of 0 to 100 where 0 is no effect and 100 is complete control. A dash (-) response means no test result.

[8] = tested on: lambsquarters (Chenopodium album); experiment: Test D postemergence
Excerpt: as §2, §3

[9] = tested on: windgrass (Apera spica-venti); experiment: Test D postemergence
Excerpt: as §2, §3

[10] = tested on: deadnettle (henbit deadnettle, Lamium amplexicaule); experiment: Test D postemergence
Excerpt: as §2, §3

[11] = tested on: winter wheat (Triticum aestivum); experiment: Test D postemergence
Excerpt: as §2, §3

[12] = tested on: galium (catchweed bedstraw, Galium aparine); experiment: Test D postemergence
Excerpt: as §2, §3

[13] = tested on: wild mustard (Sinapis arvensis); experiment: Test D postemergence
Excerpt: as §2, §3

[14] = tested on: winter barley (Hordeum vulgare); experiment: Test D postemergence
Excerpt: as §2, §3

[15] = tested on: wild buckwheat (Polygonum convolvulus); experiment: Test D postemergence
Excerpt: as §2, §3

Fc1cccc(Oc2ncc(C(F)(F)F)cn2)c1Oc1ncc(Cl)cn1 [Compound 42, 5-chloro-2-[2-fluoro-6-[[5-(trifluoromethyl)-2-pyrimidinyl]oxy]phenoxy]pyrimidine]
Plant response rating, Soybean ([1]; 16 g ai/ha): 50 | Plant response rating, Soybean ([1]; 31 g ai/ha): 60 | Plant response rating, Soybean ([1]; 62 g ai/ha): 95 | Plant response rating, Soybean ([1]; 125 g ai/ha): 95 | Plant response rating, Barnyardgrass ([2]; 16 g ai/ha): 0 | Plant response rating, Barnyardgrass ([2]; 31 g ai/ha): 0 | Plant response rating, Barnyardgrass ([2]; 62 g ai/ha): 10 | Plant response rating, Barnyardgrass ([2]; 125 g ai/ha): 20 | Plant response rating, Dayflower, VA ([3]; 16 g ai/ha): 35 | Plant response rating, Dayflower, VA ([3]; 31 g ai/ha): 50 | Plant response rating, Dayflower, VA ([3]; 62 g ai/ha): 70 | Plant response rating, Dayflower, VA ([3]; 125 g ai/ha): 75 | Plant response rating, Corn ([4]; 16 g ai/ha): 5 | Plant response rating, Corn ([4]; 31 g ai/ha): 10 | Plant response rating, Corn ([4]; 62 g ai/ha): 10 | Plant response rating, Corn ([4]; 125 g ai/ha): 15 | Plant response rating, Horseweed ([5]; 16 g ai/ha): 0 | Plant response rating, Horseweed ([5]; 31 g ai/ha): 0 | Plant response rating, Horseweed ([5]; 62 g ai/ha): 10 | Plant response rating, Horseweed ([5]; 125 g ai/ha): 10 | Plant response rating, Ragweed ([6]; 16 g ai/ha): 10 | Plant response rating, Ragweed ([6]; 31 g ai/ha): 25 | Plant response rating, Ragweed ([6]; 62 g ai/ha): 50 | Plant response rating, Ragweed ([6]; 125 g ai/ha): 60 | Plant response rating, Radish, Wild ([7]; 16 g ai/ha): 80 | Plant response rating, Radish, Wild ([7]; 31 g ai/ha): 75 | Plant response rating, Radish, Wild ([7]; 62 g ai/ha): 85 | Plant response rating, Radish, Wild ([7]; 125 g ai/ha): 90 | Plant response rating, Lambsquarters ([8]; 16 g ai/ha): 70 | Plant response rating, Lambsquarters ([8]; 31 g ai/ha): 85 | Plant response rating, Lambsquarters ([8]; 62 g ai/ha): 90 | Plant response rating, Lambsquarters ([8]; 125 g ai/ha): 95 | Plant response rating, Windgrass ([9]; 16 g ai/ha): 25 | Plant response rating, Windgrass ([9]; 31 g ai/ha): 40 | Plant response rating, Windgrass ([9]; 62 g ai/ha): 50 | Plant response rating, Windgrass ([9]; 125 g ai/ha): 60 | Plant response rating, Deadnettle ([10]; 16 g ai/ha): 35 | Plant response rating, Deadnettle ([10]; 31 g ai/ha): 40 | Plant response rating, Deadnettle ([10]; 62 g ai/ha): 60 | Plant response rating, Deadnettle ([10]; 125 g ai/ha): 75 | Plant response rating, Wheat, Winter ([11]; 16 g ai/ha): 0 | Plant response rating, Wheat, Winter ([11]; 31 g ai/ha): 5 | Plant response rating, Wheat, Winter ([11]; 62 g ai/ha): 10 | Plant response rating, Wheat, Winter ([11]; 125 g ai/ha): 20 | Plant response rating, Galium ([12]; 16 g ai/ha): 70 | Plant response rating, Galium ([12]; 31 g ai/ha): 85 | Plant response rating, Galium ([12]; 62 g ai/ha): 90 | Plant response rating, Galium ([12]; 125 g ai/ha): 100 | Plant response rating, Mustard, Wild ([13]; 16 g ai/ha): 70 | Plant response rating, Mustard, Wild ([13]; 31 g ai/ha): 70 | Plant response rating, Mustard, Wild ([13]; 62 g ai/ha): 100 | Plant response rating, Mustard, Wild ([13]; 125 g ai/ha): 100 | Plant response rating, Barley, Winter ([14]; 16 g ai/ha): 5 | Plant response rating, Barley, Winter ([14]; 31 g ai/ha): 5 | Plant response rating, Barley, Winter ([14]; 62 g ai/ha): 10 | Plant response rating, Barley, Winter ([14]; 125 g ai/ha): 15 | Plant response rating, Buckwheat, Wild ([15]; 16 g ai/ha): 75 | Plant response rating, Buckwheat, Wild ([15]; 31 g ai/ha): 80 | Plant response rating, Buckwheat, Wild ([15]; 62 g ai/ha): 95 | Plant response rating, Buckwheat, Wild ([15]; 125 g ai/ha): 100
